Assay results: patent EP0859607B1, “GUANIDINO PROTEASE INHIBITORS” (3-DIMENSIONAL PHARMACEUTICALS, INC., priority 1995, dated 1997)
pKi: −log10 of the molar value. Where a name gives a salt, the structure may show the parent alone.

Columns and labels:
Assay type in all cases: biochemical
bovine trypsin = target: T1, bovine trypsin (Bos taurus, UniProt P00760); experiment: In vitro inhibition of purified enzymes, Ki determination: trypsin; conditions: Enzyme: Trypsin; substrate Bz-Phe-Val-Arg-pNA 14 µM; pH 7.5, 37°C
T1 construct: Purified bovine trypsin was diluted into assay buffer; purchased Sigma
T1 sequence (P00760 24-246): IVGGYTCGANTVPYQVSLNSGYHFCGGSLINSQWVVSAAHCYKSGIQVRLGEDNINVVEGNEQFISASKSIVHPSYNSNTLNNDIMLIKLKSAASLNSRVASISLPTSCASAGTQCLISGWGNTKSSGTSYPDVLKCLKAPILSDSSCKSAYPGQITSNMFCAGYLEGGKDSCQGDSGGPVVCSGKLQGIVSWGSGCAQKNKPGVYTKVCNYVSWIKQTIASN
Source text: (§1) Reagents: All buffer salts were obtained from Sigma Chemical Company (St. Louis, MO), and were of the highest purity available. The enzyme substrates, N-benzoyl-Phe-Val-Arg-p-nitroanilide (Sigma B7632), N-benzoyl-Ile-Glu-Gly-Arg-p-nitroanilide (Sigma B2291), N-p-tosyl-Gly-Pro-Lys-p-nitroanilide (Sigma T6140), and N-succinyl-Ala-Ala-Pro-Phe-p-nitroanilide (Sigma S7388) were all obtained from Sigma.
(§2) Human α-thrombin. human factor Xa, and human plasmin were obtained from Enzyme Research Laboratories (South Bend, Indiana). Bovine α-chymotrypsin and bovine trypsin were obtained from Sigma.
(§3) Ki Determinations: All assays are based on the ability of the test compound to inhibit the enzyme-catalyzed hydrolysis of a peptide p-nitroanilide substrate. In a typical Ki determination, substrate is prepared in DMSO, and diluted into an assay buffer consisting of 50 mM HEPES, 200 mM NaCI, pH 7.5. The final concentration for each of the substrates is listed below. In general, substrate concentrations are lower than the experimentally determined value for Km. Test compounds are prepared as a 0.16 mg/mL solution in DMSO. Dilutions are prepared in DMSO yielding 8 final concentrations encompassing a 200-fold concentration range. Enzyme solutions are prepared at the concentrations listed below in assay buffer. […]
Trypsin: Trypsin activity was assessed as the ability to hydrolyze the substrate Bz-Phe-Val-Arg-pNA. […]

human α-thrombin = target: T2, human α-thrombin (Homo sapiens, UniProt P00734); experiment: In vitro inhibition of purified enzymes, Ki determination: thrombin; conditions: Enzyme: Thrombin; substrate Suc-Ala-Ala-Pro-Arg-pNA 20 µM; pH 7.5, 37°C
T2 construct: Purified human α-thrombin was diluted into assay buffer; purchased Enzyme Research Laboratories (South Bend, Indiana)
Source text: as §1, §2
Ki Determinations: All assays are based on the ability of the test compound to inhibit the enzyme-catalyzed hydrolysis of a peptide p-nitroanilide substrate. […] The final concentration for each of the substrates is listed below. In general, substrate concentrations are lower than the experimentally determined value for Km. Test compounds are prepared as a 0.16 mg/mL solution in DMSO. Dilutions are prepared in DMSO yielding 8 final concentrations encompassing a 200-fold concentration range. Enzyme solutions are prepared at the concentrations listed below in assay buffer.
Data corresponding to less than 10% of the total substrate hydrolysis were used in the calculations. The ratio of the velocity (rate of the change in absorbance as a function of time) for a sample containing no inhibitor is divided by the velocity of a sample containing inhibitor, and is plotted as a function of inhibitor concentration. The data are fit to a linear regression, and the value of the slope of the line calculated. The inverse of the slope is the experimentally determined Ki value.
Thrombin: Thrombin activity was assessed as the ability to hydrolyze the substrate Suc-Ala-Ala-Pro-Arg-pNA. […] Final DMSO concentration was 0.3%. […] Final reagent concentrations were: [thrombin] = 0.5 nM, [Suc-Ala-Ala-Pro-Arg-pNA] = 20 µM.

human Factor Xa = target: T3, human Factor Xa (Homo sapiens, UniProt P00742); experiment: In vitro inhibition of purified enzymes, Ki determination: factor Xa; conditions: Enzyme: Factor Xa; substrate Bz-Ile-Glu-Gly-Arg-pNA 51 µM; pH 7.5, 37°C
T3 construct: purchased Enzyme Research Laboratories (South Bend, Indiana)
Source text: as §1, §2
as §3, with “range.” for “range. Enzyme solutions are prepared at the concentrations listed below in assay buffer.”
Factor Xa: Factor Xa activity was assessed as the ability to hydrolyze the substrate Bz-Ile-Glu-Gly-Arg-pNA. […]

human plasmin = target: T4, human plasmin (Homo sapiens, UniProt P00747); experiment: In vitro inhibition of purified enzymes, Ki determination: plasmin; conditions: Enzyme: Plasmin; substrate Tos-Gly-Pro-Lys-pNA 22 µM; pH 7.5, 37°C
T4 construct: Purified human plasmin was diluted into assay buffer; purchased Enzyme Research Laboratories (South Bend, Indiana)
Source text: as §1, §2, §3
Plasmin: Plasmin activity was assessed as the ability to hydrolyze the substrate Tos-Gly-Pro-Lys-pNA. […]

bovine α-chymotrypsin = target: T5, bovine α-chymotrypsin (Bos taurus, UniProt P00766); experiment: In vitro inhibition of purified enzymes, Ki determination: chymotrypsin; conditions: Enzyme: Chymotrypsin; substrate Suc-Ala-Ala-Pro-Phe-pNA 14 µM; pH 7.5, 37°C
T5 construct: Purified bovine α-chymotrypsin was diluted into assay buffer; purchased Sigma
Source text: as §1, §2
as §3, with “range.” for “range. Enzyme solutions are prepared at the concentrations listed below in assay buffer.”
Chymotrypsin: Chymotrypsin activity was assessed as the ability to hydrolyze the substrate Suc-Ala-Ala-Pro-Phe-pNA. […]

T4 sequence (P00747 581-810 limits assumed): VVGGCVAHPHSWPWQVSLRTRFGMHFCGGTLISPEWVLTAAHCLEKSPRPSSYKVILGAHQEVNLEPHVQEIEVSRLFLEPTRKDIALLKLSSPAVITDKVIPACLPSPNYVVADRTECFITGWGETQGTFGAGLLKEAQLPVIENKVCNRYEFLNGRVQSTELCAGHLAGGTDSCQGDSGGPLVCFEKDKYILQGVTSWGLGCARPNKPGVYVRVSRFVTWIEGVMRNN
T4 sequence (P00747 97-580 partner limits assumed): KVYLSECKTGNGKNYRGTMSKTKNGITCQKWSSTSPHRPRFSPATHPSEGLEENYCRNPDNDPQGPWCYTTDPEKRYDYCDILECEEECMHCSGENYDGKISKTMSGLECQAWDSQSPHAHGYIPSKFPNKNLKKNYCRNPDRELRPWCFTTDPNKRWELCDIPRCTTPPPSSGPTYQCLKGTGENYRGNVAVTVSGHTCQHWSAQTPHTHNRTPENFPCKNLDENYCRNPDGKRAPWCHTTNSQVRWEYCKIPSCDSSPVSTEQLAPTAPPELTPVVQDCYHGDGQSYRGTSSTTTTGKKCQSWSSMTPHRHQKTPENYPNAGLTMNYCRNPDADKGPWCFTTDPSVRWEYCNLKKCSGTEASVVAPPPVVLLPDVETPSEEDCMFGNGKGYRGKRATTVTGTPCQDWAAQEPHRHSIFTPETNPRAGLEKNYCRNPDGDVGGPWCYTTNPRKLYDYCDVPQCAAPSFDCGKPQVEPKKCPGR
T3 sequence (P00742 235-488 limits assumed): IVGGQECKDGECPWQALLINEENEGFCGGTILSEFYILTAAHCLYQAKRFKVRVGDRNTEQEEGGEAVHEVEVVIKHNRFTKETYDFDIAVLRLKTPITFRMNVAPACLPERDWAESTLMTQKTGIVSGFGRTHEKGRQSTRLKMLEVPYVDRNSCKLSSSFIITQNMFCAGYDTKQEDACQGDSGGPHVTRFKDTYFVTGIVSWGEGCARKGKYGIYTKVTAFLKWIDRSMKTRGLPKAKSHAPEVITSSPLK
T3 sequence (P00742 41-179 partner limits assumed): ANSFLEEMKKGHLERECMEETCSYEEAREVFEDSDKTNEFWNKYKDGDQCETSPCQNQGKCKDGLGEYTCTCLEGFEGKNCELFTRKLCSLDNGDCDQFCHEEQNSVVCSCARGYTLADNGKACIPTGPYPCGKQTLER

Compound | pKi (human α-thrombin) | further results
N=C(N)N1CCC(CNc2cccc(N(Cc3ccccc3)S(=O)(=O)c3ccccc3)c2)CC1 [Example 11, N-benzyl-N-[[3-(1-aminoiminomethyl)-piperidin-4-ylmethylamino]phenyl]benzenesulfonamide] | – | pKi (bovine trypsin): 5.28
Benzenesulfonic acid 3-[[1-(aminoiminomethyl)piperidin-4-yl]methoxy]-5-methylphenyl ester acetic acid salt [Example 17] | 7.44 | –
2-Chlorobenzenesulfonic acid 3-[[1-(aminoiminomethyl)piperidin-3-yl]methoxy]-5-methylphenyl ester [Example 4] | – | pKi (human Factor Xa): 4.24
N=C(N)N1CCN(CCOc2cccc(OS(=O)(=O)c3ccccc3Cl)c2)CC1 [Example 5, 2-Chlorobenzenesulfonic acid 3-[2-[1-(aminoiminomelhyl)piperazin-4-yl]ethoxy]phenyl ester diacetic acid salt] | – | pKi (human plasmin): 4.53
2-Chlorobenzenesulfonic acid 3-[[1-(aminoiminomethyl)piperidin-4-yl]methoxy]-5-hydroxymethylphenylester [Example 44] | 5.16 | –
2-Chlorobenzenesulfonic acid 3-[2-[1-(aminoiminomethyl)piperazin-4-yl]ethoxy]-5-methylphenyl ester diacetic acid salt [Example 6] | 6.48 | –
N=C(N)N1CCC(COc2cc(OS(=O)(=O)c3ccccc3Cl)ccc2Cc2ccccc2)CC1 [Example 12, 2-Chlorobenzenesulfonic acid 3-[[1-aminoiminomethyl)piperidin-4-yl]methoxy]-4-benzylphenyl ester acetic acid salt] | – | pKi (bovine α-chymotrypsin): 4.90

More lines, main results first:

pKi (human α-thrombin) | Compound | further results
7.72 | 2-Trifluoromethylbenzenesulfonic acid 3-[[1-(aminoiminomethyl)piperidin-4-yl]methoxy]-5-methylphenyl ester acetic acid salt [Example 38] | –
8.10 | 2-Chlorobenzenesulfonic acid, 3-[[1-(aminoiminomethyl)piperidin-4-yl]methoxy]-5-methylphenyl ester [Example 3] | –
7.68 | 2,3-Dichlorobenzenesulfonic acid 3-[[1-(aminoiminomethyl)piperidin-4-yl]methoxy]-5-methylphenyl ester hydrochloride [Example 42] | –
7.47 | 3-Amino-2-chlorobenzenesulfonic acid 3-[[1-(aminoiminomethyl)piperidin-4-yl]methoxy]-5-methylphenyl ester dihydrochloride [Example 33] | –
6.60 | 2-Chlorobenzenesulfonic acid 3-[[1-(aminoiminomethyl)piperidin-4-yl]methoxy]phenyl ester [Example 1] | –
7.40 | 2-Chlorobenzenesulfonic acid 3-[[1-(aminoiminomethyl)piperidin-4-yl]methoxy]-5-chlorophenyl ester hydrochloride [Example 24] | –
